From patent US8278452B2, “Heterocyclic compounds and compositions as c-kit and PDGFR kinase inhibitors” (IRM LLC, priority 2008, dated 2012)

Tested on: Mo7e cells which endogenously express c-kit
Experiment: Mo7e assay: inhibition of SCF dependent proliferation (MTT)
Assay type: cell-based
Conditions: Table 1; SCF stimulated Mo7e cells, 48 hours, MTT
Procedure, shortened: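 Mo7e cells stimulated with human recombinant SCF and exposed to two-fold serial compound dilutions from a top concentration of 10 μM. After 48 h at 37 °C, viability measured by MTT colorimetric assay; IC50 derived.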

Row | Structure (SMILES) | IC50 [nM]
1 | Cc1cc2c(cn1)cc(-c1cc(Nc3nsc(-c4ccccc4)n3)ccc1C)c(=O)n2C [Compound G1, 1,7-dimethyl-3-(2-methyl-5-(5-phenyl-1,2,4-thiadiazol-3-ylamino)phenyl)-1,6-naphthyridin-2(1H)-one] | 733
2 | Cc1cc2c(cn1)cc(-c1cc(Nc3nnc(CC(C)(C)C)[nH]3)ccc1C)c(=O)n2C [Compound C5, 3-(5-{[5-(2,2-dimethylpropyl)-4H-1,2,4-triazol-3-yl]amino}-2-methylphenyl)-1,7-dimethyl-1,2-dihydro-1,6-naphthyridin-2-one] | 320
3 | Cc1cc2c(cn1)cc(-c1cc(Nc3noc(C(C)(C)C)n3)ccc1C)c(=O)n2C [Compound A30, 3-{5-[(5-tert-butyl-1,2,4-oxadiazol-3-yl)amino]-2-methylphenyl}-1,7-dimethyl-1,2-dihydro-1,6-naphthyridin-2-one] | 245
4 | CC(=O)c1ccc(-c2nc(Nc3ccc(C)c(-c4cc5cnc(C)cc5n(C)c4=O)c3)no2)cc1 [Compound A95, 3-(5-{[5-(4-acetylphenyl)-1,2,4-oxadiazol-3-yl]amino}-2-methylphenyl)-1,7-dimethyl-1,2-dihydro-1,6-naphthyridin-2-one] | 310
5 | Cc1cc2c(cn1)cc(-c1cc(Nc3noc(-c4ccc(C#N)cc4F)n3)ccc1C)c(=O)n2C [Compound A63, 4-(3-{[3-(1,7-dimethyl-2-oxo-1,2-dihydro-1,6-naphthyridin-3-yl)-4-methylphenyl]amino}-1,2,4-oxadiazol-5-yl)-3-fluorobenzonitrile] | 123
6 | Cc1cc2c(cn1)cc(-c1cc(Nc3noc(C4CC(O)C4)n3)ccc1C)c(=O)n2C (stereo not drawn) [Compound A83, 3-(5-{[5-(3-hydroxycyclobutyl)-1,2,4-oxadiazol-3-yl]amino}-2-methylphenyl)-1,7-dimethyl-1,2-dihydro-1,6-naphthyridin-2-one] | 251
7 | Cc1cc2c(cn1)cc(-c1cc(Nc3noc(C4(CO)CC4)n3)ccc1C)c(=O)n2C [Compound A69, 3-(5-(5-(1-(hydroxymethyl)cyclopropyl)-1,2,4-oxadiazol-3-ylamino)-2-methylphenyl)-1,7-dimethyl-1,6-naphthyridin-2(1H)-one] | 148
8 | Cc1cc2c(cn1)cc(-c1cc(Nc3noc(-c4ccccc4C#N)n3)ccc1C)c(=O)n2C [Compound A38, 2-(3-{[3-(1,7-dimethyl-2-oxo-1,2-dihydro-1,6-naphthyridin-3-yl)-4-methylphenyl]amino}-1,2,4-oxadiazol-5-yl)benzonitrile] | 325
9 | Cc1cc2c(cn1)cc(-c1cc(Nc3noc(-c4nccs4)n3)ccc1C)c(=O)n2C [Compound A9, 1,7-dimethyl-3-(2-methyl-5-(5-(thiazol-2-yl)-1,2,4-oxadiazol-3-ylamino)phenyl)-1,6-naphthyridin-2(1H)-one] | 204
10 | Cc1cc2c(cn1)cc(-c1cc(Nc3noc(C(O)C(C)C)n3)ccc1C)c(=O)n2C (stereo not drawn) [Compound A64, 3-(5-(5-(1-hydroxy-2-methylpropyl)-1,2,4-oxadiazol-3-ylamino)-2-methylphenyl)-1,7-dimethyl-1,6-naphthyridin-2(1H)-one] | 118
11 | Cc1cc2c(cn1)cc(-c1cc(Nc3noc(-c4ccc(Cl)nc4)n3)ccc1C)c(=O)n2C [Compound A1, 3-(5-{[5-(6-chloropyridin-3-yl)-1,2,4-oxadiazol-3-yl]amino}-2-methylphenyl)-1,7-dimethyl-1,2-dihydro-1,6-naphthyridin-2-one] | 100
12 | Cc1cc2c(cn1)cc(-c1cc(Nc3noc(-c4cnccn4)n3)ccc1C)c(=O)n2C [Compound A70, 1,7-dimethyl-3-(2-methyl-5-{[5-(pyrazin-2-yl)-1,2,4-oxadiazol-3-yl]amino}phenyl)-1,2-dihydro-1,6-naphthyridin-2-one] | 211
13 | Cc1cc2c(cn1)cc(-c1cc(Nc3cc(C4CCCO4)on3)ccc1C)c(=O)n2C (stereo not drawn) [Compound D5] | 197
14 | Cc1cc2c(cn1)cc(-c1cc(Nc3noc(C4CCCC4)n3)ccc1C)c(=O)n2C [Compound A15, 3-{5-[(5-cyclopentyl-1,2,4-oxadiazol-3-yl)amino]-2-methylphenyl}-1,7-dimethyl-1,2-dihydro-1,6-naphthyridin-2-one] | 28
15 | Cc1cc2c(cn1)cc(-c1cc(Nc3noc(-c4ccc(C#N)cc4)n3)ccc1C)c(=O)n2C [Compound A37, 4-(3-{[3-(1,7-dimethyl-2-oxo-1,2-dihydro-1,6-naphthyridin-3-yl)-4-methylphenyl]amino}-1,2,4-oxadiazol-5-yl)benzonitrile] | 57
16 | Cc1cc2c(cn1)cc(-c1cc(Nc3noc(-c4cc(C)oc4C)n3)ccc1C)c(=O)n2C [Compound A2, 3-(5-{[5-(2,5-dimethylfuran-3-yl)-1,2,4-oxadiazol-3-yl]amino}-2-methylphenyl)-1,7-dimethyl-1,2-dihydro-1,6-naphthyridin-2-one] | 126
17 | Cc1cc2c(cn1)cc(-c1cc(Nc3nnc(C4CC4)o3)ccc1C)c(=O)n2C [Compound B9, 3-{5-[(5-cyclopropyl-1,3,4-oxadiazol-2-yl)amino]-2-methylphenyl}-1,7-dimethyl-1,2-dihydro-1,6-naphthyridin-2-one] | 334

Row | Structure (SMILES) | IC50 [nM]
18 | Cc1cc2c(cn1)cc(-c1cc(Nc3noc(-c4ncccc4C)n3)ccc1C)c(=O)n2C [Compound A79, 1,7-dimethyl-3-(2-methyl-5-{[5-(3-methylpyridin-2-yl)-1,2,4-oxadiazol-3-yl]amino}phenyl)-1,2-dihydro-1,6-naphthyridin-2-one] | 94
19 | COc1ccc(-c2nc(Nc3ccc(C)c(-c4cc5cnc(C)cc5n(C)c4=O)c3)no2)cn1 [Compound A87, 3-(5-{[5-(6-methoxypyridin-3-yl)-1,2,4-oxadiazol-3-yl]amino}-2-methylphenyl)-1,7-dimethyl-1,2-dihydro-1,6-naphthyridin-2-one] | 95
20 | Cc1cc2c(cn1)cc(-c1cc(Nc3noc([C@@H]4CCCCO4)n3)ccc1C)c(=O)n2C [Compound A100, 1,7-dimethyl-3-[2-methyl-5-({5-[(2S)-oxan-2-yl]-1,2,4-oxadiazol-3-yl}amino)phenyl]-1,2-dihydro-1,6-naphthyridin-2-one] | 70
21 | Cc1cc2c(cn1)cc(-c1cc(Nc3noc(C4CCOCC4)n3)ccc1C)c(=O)n2C [Compound A33, 1,7-dimethyl-3-(2-methyl-5-{[5-(oxan-4-yl)-1,2,4-oxadiazol-3-yl]amino}phenyl)-1,2-dihydro-1,6-naphthyridin-2-one] | 444
22 | Cc1cc2c(cn1)cc(-c1cc(Nc3noc(-c4ccc(F)cc4)n3)ccc1C)c(=O)n2C [Compound A24, 3-(5-{[5-(4-fluorophenyl)-1,2,4-oxadiazol-3-yl]amino}-2-methylphenyl)-1,7-dimethyl-1,2-dihydro-1,6-naphthyridin-2-one] | 36
23 | CCc1nc(Nc2ccc(C)c(-c3cc4cnc(C)cc4n(C)c3=O)c2)no1 [Compound A5, 3-(5-(5-ethyl-1,2,4-oxadiazol-3-ylamino)-2-methylphenyl)-1,7-dimethyl-1,6-naphthyridin-2(1H)-one] | 49
24 | Cc1cc2c(cn1)cc(-c1cc(Nc3noc(-c4ccc(O)cc4)n3)ccc1C)c(=O)n2C [Compound A36, 3-(5-{[5-(4-hydroxyphenyl)-1,2,4-oxadiazol-3-yl]amino}-2-methylphenyl)-1,7-dimethyl-1,2-dihydro-1,6-naphthyridin-2-one] | 375
25 | Cc1cc2c(cn1)cc(-c1cc(Nc3noc(C4CCCOC4)n3)ccc1C)c(=O)n2C (stereo not drawn) [Compound A59, 1,7-dimethyl-3-(2-methyl-5-{[5-(oxan-3-yl)-1,2,4-oxadiazol-3-yl]amino}phenyl)-1,2-dihydro-1,6-naphthyridin-2-one] | 233
26 | Cc1cc2c(cn1)cc(-c1cc(Nc3nnc(-c4cccc(Cl)c4)[nH]3)ccc1C)c(=O)n2C [Compound C7, 3-(5-{[5-(3-chlorophenyl)-4H-1,2,4-triazol-3-yl]amino}-2-methylphenyl)-1,7-dimethyl-1,2-dihydro-1,6-naphthyridin-2-one] | 378
27 | Cc1cc2c(cn1)cc(-c1cc(Nc3nnc(-c4ccccc4)s3)ccc1C)c(=O)n2C [Compound H1, 1,7-dimethyl-3-(2-methyl-5-(5-phenyl-1,3,4-thiadiazol-2-ylamino)phenyl)-1,6-naphthyridin-2(1H)-one] | 552
28 | Cc1cc2c(cn1)cc(-c1cc(Nc3noc(C4CCOC4)n3)ccc1C)c(=O)n2C (stereo not drawn) [Compound A78, 1,7-dimethyl-3-(2-methyl-5-{[5-(oxolan-3-yl)-1,2,4-oxadiazol-3-yl]amino}phenyl)-1,2-dihydro-1,6-naphthyridin-2-one] | 120
29 | Cc1cc2c(cn1)cc(-c1cc(Nc3noc(-c4ccc(C(F)(F)F)nc4)n3)ccc1C)c(=O)n2C [Compound A4, 1,7-dimethyl-3-[2-methyl-5-({5-[6-(trifluoromethyl)pyridin-3-yl]-1,2,4-oxadiazol-3-yl}amino)phenyl]-1,2-dihydro-1,6-naphthyridin-2-one] | 472
30 | Cc1cc2c(cn1)cc(-c1cc(Nc3nnc(-c4ccc(Cl)cc4)[nH]3)ccc1C)c(=O)n2C [Compound C2, 3-(5-{[5-(4-chlorophenyl)-4H-1,2,4-triazol-3-yl]amino}-2-methylphenyl)-1,7-dimethyl-1,2-dihydro-1,6-naphthyridin-2-one] | 256
31 | Cc1cnc(-c2nc(Nc3ccc(C)c(-c4cc5cnc(C)cc5n(C)c4=O)c3)no2)cn1 [Compound A71, 1,7-dimethyl-3-(2-methyl-5-{[5-(5-methylpyrazin-2-yl)-1,2,4-oxadiazol-3-yl]amino}phenyl)-1,2-dihydro-1,6-naphthyridin-2-one] | 424
32 | Cc1cc2c(cn1)cc(-c1cc(Nc3nnc(-c4ccc(F)cc4)o3)ccc1C)c(=O)n2C [Compound B6, 3-(5-{[5-(4-fluorophenyl)-1,3,4-oxadiazol-2-yl]amino}-2-methylphenyl)-1,7-dimethyl-1,2-dihydro-1,6-naphthyridin-2-one] | 121
33 | Cc1cc2c(cn1)cc(-c1cc(Nc3noc(-c4cccc(O)c4)n3)ccc1C)c(=O)n2C [Compound A39, 3-(5-{[5-(3-hydroxyphenyl)-1,2,4-oxadiazol-3-yl]amino}-2-methylphenyl)-1,7-dimethyl-1,2-dihydro-1,6-naphthyridin-2-one] | 480
